These results are taken from ChEMBL document CHEMBL1201862, “PubChem BioAssay data set” (2004).

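96-well plates; 48 h exposure; 5 concentrations. Endpoints by linear interpolation between flanking doses. Not reached: highest tested concentration assigned. The concentration for 50% growth inhibition is given as GI50.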 Active and inactive are the calls of the source. No stated cut-off is given here; in the data, active = GI50 up to about 1.1 µM and inactive = higher.

What all share (assay): inhibition of tumour cell growth, NCI panel, 48 h
Test [1] has as its system MOLT-4.
Test [2] relates to UACC-257.
In test [3] the test system is HCT-116.
For test [4], the system named is COLO 205.
For test [5], the system named is U-251.
The test system of test [6] is TK-10.
In test [7] the test system is MDA-MB-435.
Test [8] has as its system SK-MEL-28.
For test [9], the system named is SN12C.
In test [10] the test system is HL-60.
Test [11] relates to MDA-N.
For test [12], the system named is HT-29.
Test [13] relates to RXF 393.
Test [14] deals with A549.
In test [15] the test system is SF-295.
Test [16] has as its system MCF7.
The subject of test [17] is SK-MEL-2.
Test [18] concerns T47D.
The subject of test [19] is HCC 2998.

With `O=C(O)CN(CC(=O)O)c1ccccc1`, the GI50 was > 100 µM (inactive) in test [1]; 18.2 µM (inactive) in test [2]; 56.5 µM (inactive) in [3]; > 100 µM (inactive) in test [4]; 74.5 µM (inactive) in [5]; > 100 µM (inactive) in test [6]. Also, the GI50 in test [7] is 70.6 µM (inactive); in test [8], > 100 µM (inactive); in test [9], > 100 µM (inactive); in test [10], 44.5 µM (inactive); in test [11] it was 97.5 µM (inactive); in test [12], 59.4 µM (inactive). Besides, the GI50 in test [13] is > 100 µM (inactive); in test [14], > 100 µM (inactive); in test [15] it was > 100 µM (inactive); in test [16] it was > 100 µM (inactive); in [17] it was 33.2 µM (inactive); in [18], 37.3 µM (inactive).

Consider `COc1ccccc1NC(=S)Nc1cc(C)ccn1`, for which the GI50 in [1], in [2], in test [3], in test [4], in test [5] and in test [6] was > 100 µM (inactive) throughout. Moreover, the GI50 in test [7], in test [8], in test [9], in test [10], in test [11] and in [12] was > 100 µM (inactive) in each case. Moreover, the GI50 is 96.6 µM (inactive) in test [13]; > 100 µM (inactive) in test [14]; > 100 µM (inactive) in test [15]; > 100 µM (inactive) in [16]; > 100 µM (inactive) in [17]; > 100 µM (inactive) in test [18].

With `N=c1oc2c(Br)cc(Br)cc2cc1C(=O)Nc1ccccn1`, the GI50 was > 100 µM (inactive) in [1]; > 100 µM (inactive) in [2]; 38.3 µM (inactive) in [3]; > 100 µM (inactive) in test [4]; 96.6 µM (inactive) in test [5]; 62.1 µM (inactive) in test [7]. The GI50 in [8] was > 100 µM (inactive); in [9], > 100 µM (inactive); in test [19], > 100 µM (inactive); in test [10], 57.5 µM (inactive); in test [11], > 100 µM (inactive); in test [12], 44.1 µM (inactive). Moreover, the GI50 in [13] is 75.3 µM (inactive); in test [14] it was 65.3 µM (inactive); in test [16] it was 39.9 µM (inactive); in [17], 30.1 µM (inactive); in [18], 38.8 µM (inactive).

As for `COC(CO[Si](C)(C)N[Si](C)(C)OCC(OC)c1ccccc1)c1ccccc1` (centres undefined), the GI50 in test [1], in test [2], in test [3], in test [4], in test [5] and in test [6] was > 100 µM (inactive) each time. The GI50 in [7], in [8], in [9], in test [19], in test [10] and in test [11] was > 100 µM (inactive) in each case. Besides, the GI50 in [13], in test [14], in [15], in [16], in test [17] and in test [18] was > 100 µM (inactive) throughout.

With `COC1(CC[C@@H](C)COC2OC(CO)C(O)C(O)C2O)O[C@H]2C[C@H]3[C@@H]4CC=C5C[C@@H](OC6OC(CO)C(OC7OC(C)C(O)C(O)C7O)C(O)C6OC6OC(C)C(O)C(O)C6O)CC[C@]5(C)[C@H]4CC[C@]3(C)[C@H]2[C@@H]1C` (some centres undefined), the GI50 in test [1] was 21.7 µM (inactive); in [2], 3.51 µM (inactive); in test [4], 5.15 µM (inactive); in [5] it was 1.81 µM (inactive); in test [6] it was 17.2 µM (inactive); in test [7] it was 2.02 µM (inactive). The GI50 was 2.97 µM (inactive) in [8]; 5.85 µM (inactive) in test [9]; 3.74 µM (inactive) in [19]; 18.2 µM (inactive) in [10]; 2.61 µM (inactive) in [11]; 2.68 µM (inactive) in [12]. For the same molecule, the GI50 in test [13] is 3.41 µM (inactive); in test [14], 2 µM (inactive); in test [15], 2.82 µM (inactive); in test [16] it was 6.28 µM (inactive); in [17] it was 4.39 µM (inactive); in test [18], 6.08 µM (inactive).

As for `CC(=O)c1c2c(cc3c1CCC3)CCC2`, the GI50 in [1] was 20.6 µM (inactive); in test [2], > 100 µM (inactive); in [3], 70.3 µM (inactive); in [4], > 100 µM (inactive); in [5], > 100 µM (inactive); in test [6], 49 µM (inactive). For the same molecule, the GI50 in [7], in test [8], in test [9], in test [19], in [10] and in test [11] was > 100 µM (inactive) each time. The GI50 in test [12] is > 100 µM (inactive); in [14], > 100 µM (inactive); in [15], > 100 µM (inactive); in [16] it was > 100 µM (inactive); in [17], > 100 µM (inactive); in test [18], 15.4 µM (inactive).

For `c1ccc2cc(OCC3CO3)c(OCC3CO3)cc2c1` (centres undefined), the GI50 in test [1] was 0.562 µM (active); in test [2] it was 10.2 µM (inactive); in test [3], 1.3 µM (inactive); in test [4], 12.8 µM (inactive); in test [5] it was 2.9 µM (inactive); in test [6], 12.1 µM (inactive). The GI50 in test [7] is 10.1 µM (inactive); in test [8] it was 11.9 µM (inactive); in test [9], 2.37 µM (inactive); in test [10] it was 1.53 µM (inactive); in test [11], 10.1 µM (inactive); in test [12] it was 7.05 µM (inactive). Also, the GI50 was < 0.01 µM (active) in test [13]; 3.68 µM (inactive) in test [14]; 2.21 µM (inactive) in test [15]; 0.388 µM (active) in test [16]; 10.9 µM (inactive) in test [17]; 10.9 µM (inactive) in test [18].

In the case of `O=C1CCC2(CC1CCSc1ccccc1)OCCO2` (centres undefined), the GI50 in [1] was 81.8 µM (inactive); in test [2], > 100 µM (inactive); in [4], > 100 µM (inactive); in test [5] it was > 100 µM (inactive); in test [6], > 100 µM (inactive); in test [7], > 100 µM (inactive). The GI50 in test [8] is > 100 µM (inactive); in [19], > 100 µM (inactive); in [10], 95.1 µM (inactive); in test [11], > 100 µM (inactive); in test [12] it was > 100 µM (inactive); in test [13], > 100 µM (inactive). The GI50 in [14], in test [15], in test [16], in [17] and in test [18] was > 100 µM (inactive) throughout.

Take `Cc1cccc2c(=O)c3cccc(CC(=O)O)c3oc12`: the GI50 in [1], in test [2], in test [3], in test [4], in [5] and in [6] was > 100 µM (inactive) each time. In addition, the GI50 in test [7], in test [8], in [9], in test [19], in test [10] and in test [11] was > 100 µM (inactive) throughout. For the same molecule, the GI50 in test [12], in [14], in [15], in [16], in test [17] and in test [18] was > 100 µM (inactive) in each case.

For `Cc1ccc2nc(-c3ccc(NC(=O)c4ccc(N)cc4)c(S(=O)(=O)O)c3)sc2c1`, the GI50 in [1], in test [2], in [3], in test [4], in [5] and in test [6] was > 100 µM (inactive) each time. For the same molecule, the GI50 in test [7], in test [8], in test [9], in test [19], in [10] and in [11] was > 100 µM (inactive) in each case. Further, the GI50 in test [12], in [13], in [14], in test [15], in test [16] and in [18] was > 100 µM (inactive) in each case.

Regarding `Nc1ccc(Nc2cc(O)nc(O)n2)cc1`, the GI50 in [1], in [2], in test [3], in [5], in test [6] and in [7] was > 100 µM (inactive) in each case. Also, the GI50 in [8], in [9], in [19], in [10], in test [11] and in test [12] was > 100 µM (inactive) throughout. Besides, the GI50 in test [14] is > 100 µM (inactive); in [15], > 100 µM (inactive); in [16], > 100 µM (inactive); in test [18], 39.3 µM (inactive).
